Key:
[1] = molecular target: T1, Olfr1440 (Mus musculus, UniProt Q8VFV4); assay: Control enhancement experiment on mouse ortholog receptor; format: cell-based
T1 construct: expressed in transfected cells
T1 sequence (Q8VFV4 1-315): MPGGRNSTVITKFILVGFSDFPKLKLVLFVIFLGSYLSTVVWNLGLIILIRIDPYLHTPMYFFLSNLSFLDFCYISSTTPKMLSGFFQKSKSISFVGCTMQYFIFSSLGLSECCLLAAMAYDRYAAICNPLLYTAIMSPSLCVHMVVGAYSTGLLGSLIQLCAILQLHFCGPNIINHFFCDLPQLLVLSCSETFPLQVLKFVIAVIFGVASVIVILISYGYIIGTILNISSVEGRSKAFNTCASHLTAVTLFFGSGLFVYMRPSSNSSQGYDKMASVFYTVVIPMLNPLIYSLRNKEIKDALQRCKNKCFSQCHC
Protocol: (§1) The level of enhancement of the OR5AN1 olfactory receptor activation was evaluated at distinct concentrations of the enhancer. […] The curves were obtained by applying the simplified Allosteric EC50 shift effect equation (available in Prism5, v. 5.02) derived from the ternary complex interaction model.
Furthermore and as a control, a similar experiment was performed on the mouse MUSCENONE® responsive odorant receptor Olfr1440, the ortholog of OR5AN1.

[2] = tested on: OR5AN1 allele 3; assay: Cell based assay of hypofunctional OR5AN1 allele 3 with and without enhancer; set-up: species or system human; details: allele 3, presence vs absence of enhancer
[3] = molecular target: T2, OR5AN1 olfactory receptor (Homo sapiens, UniProt Q8NGI8); assay: Dose-response of individual candidate alone (intrinsic agonist activity) on OR5AN1; format: cell-based
T2 construct: expressed in transfected cells
T2 sequence (Q8NGI8 1-311): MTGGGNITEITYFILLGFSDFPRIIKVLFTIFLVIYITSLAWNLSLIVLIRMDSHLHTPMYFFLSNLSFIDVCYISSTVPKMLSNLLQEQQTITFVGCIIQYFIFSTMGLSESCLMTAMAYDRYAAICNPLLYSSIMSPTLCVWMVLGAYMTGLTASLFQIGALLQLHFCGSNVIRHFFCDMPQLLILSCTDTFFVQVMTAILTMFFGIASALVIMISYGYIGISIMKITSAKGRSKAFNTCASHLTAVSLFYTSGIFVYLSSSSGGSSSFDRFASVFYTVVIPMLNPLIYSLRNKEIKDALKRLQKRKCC
Protocol: 15 candidates, marked as “enhancement” in Table 2 were identified. Strikingly, 80% of these putative enhancers (12/15) belonged to the same class of chemicals: unsaturated aliphatic aldehydes. Next, two parallel dose-response experiments to confirm the true enhancement properties of the potential candidates were performed. First, a dose-response of each individual candidate was performed to determine if it was an agonist by itself. Second, a MUSCENONE® dose-response curve in the presence and absence of a 250 μM concentration of the putative modulator was assessed for EC50 shifts.

[4] = molecular target: T2, OR5AN1 olfactory receptor; assay: MUSCENONE®/musk dose-response on OR5AN1 in presence and absence of putative modulator (EC50 shift, span); format: cell-based; details: enhancer at 250 μM, FIG. 3A
Protocol: Next, two parallel dose-response experiments to confirm the true enhancement properties of the potential candidates were performed. First, a dose-response of each individual candidate was performed to determine if it was an agonist by itself.
The resulting enhancement was quantified by means of EC50-fold shift (potency increase) and the efficacy span ratio (efficacy increase).
The EC50-fold shift was obtained by dividing the EC50 of MUSCENONE® +compound by the reference EC50 MUSCENONE® alone. The span ratio was obtained by dividing the span of MUSCENONE®+compound by the reference span of MUSCENONE® alone.

[5] = tested on: OR5AN1 allele 4; assay: Cell based assay of hypofunctional OR5AN1 allele 4 with and without enhancer; set-up: species or system human; details: allele 4, presence vs absence of enhancer
[6] = molecular target: T2, OR5AN1 olfactory receptor; assay: Allosteric EC50 shift analysis: MUSCENONE® dose response with serial concentrations of enhancer; format: cell-based
Protocol: as §1

## CCCCCCCCCC/C=C/C=O [tridecylenic aldehyde]
[1]
  Effect on Olfr1440 MUSCENONE®-induced activation: slight inhibition
[2]
  Activity span-ratio: 2.02
[3]
  Activation of OR5AN1 by the compound by itself: did not activate the OR5AN1 olfactory receptor by itself
[3]; above approximately 100 μM
  Activation by compound alone relative to the MUSCENONE® activation window: less than 8%
[4]
  Maximal activation level (span) of MUSCENONE®: increased span
[5]
  Activity span-ratio: 2.16
[6]; Allosteric EC50 shift model, enhancer 0 to 1 mM
  α (cooperativity factor): 15.7
[6]; read-out: KB (equilibrium dissociation constant)
  Kb: 259 µM

Reference: patent publication US20230125249A1 (FIRMENICH SA, priority 2017, published 2023)
